# In US20240409530A1, “Disubstituted Pyrimidine Compounds for Ketohexokinase Inhibition” (Centennial Therapeutics, LLC, priority 2023, published 2024):
# pIC50: −log10 of the molar value.
# Experiments:
# Human recombinant KHK-A = Human recombinant KHK-A (Homo sapiens (Human), UniProt P50053); assay: KHK inhibition assay, recombinant isozyme (coupled pyruvate kinase/LDH, NADH absorbance 340 nm); assay type: biochemical; settings: recombinant isozyme 6 nM, fructose 2 mM, ATP 0.1 mM
# Experimental: (§1) Determination of Human and Rat recombinant KHK-A and KHK-C isozyme IC50 Values
# (§2) An assay reagent cocktail was prepared by combining NADH, water, TEA, KCl, MgCl2, PEP, ATP, DTT, coupling enzymes (pyruvate kinase and lactate dehydrogenase, LDH) to final concentrations as shown in Table B.
# (§3) To this was added the relevant KHK isozyme to a final concentration of 6 nM. Aliquots of each inhibitor compound were diluted via 5-fold serial dilutions to produce final concentrations ranging from 1000 nM to 0.064 nM. The inhibitor aliquots were added to the assay reagent cocktail containing KHK with fructose (at a concentration of 2 mM) in a 96-well plate. The absorbance at 340 nm was measured via spectrophotometry and inhibition was analyzed using non-linear regression.
# Rat recombinant KHK-A = Rat recombinant KHK-A (Rattus norvegicus (Rat), UniProt Q02974); assay: as above; assay type: biochemical; settings: recombinant isozyme 6 nM, fructose 2 mM, ATP 0.1 mM
# Experimental: as §1, §2, §3
# Rat recombinant KHK-C = Rat recombinant KHK-C (Rattus norvegicus (Rat), UniProt Q02974); assay: as above; assay type: biochemical; settings: recombinant isozyme 6 nM, fructose 2 mM, ATP 0.1 mM
# Experimental: as §1, §2, §3
# Human recombinant KHK-C = Human recombinant KHK-C (Homo sapiens (Human), UniProt P50053); assay: as above; assay type: biochemical; settings: recombinant isozyme 6 nM, fructose 2 mM, ATP 0.1 mM
# Experimental: as §1, §2, §3
# human KHK in HepG2 Cells = human KHK in HepG2 Cells (Homo sapiens (Human), UniProt P50053); assay: Cell-based potency assay (HepG2 assay), F1P by LC/MS; settings: fructose 20 mM, 20 min, F1P produced
# Experimental: Testing inhibition effect of compounds against human KHK in HepG2 Cells
# (§4) HepG2 cells were grown in RPMI1640 supplemented media on 100 mm plates to near confluency (about 5-8×10^6 cells). The growth media was aspirated and 4 mL trypsin solution (0.25% (w/v)+0.25% (w/v) EDTA) was added, followed by incubation at 37° C. for 5-10 mins. The cells were pelleted and resuspended in 2 mL complete media.
# The cells were then placed in a 96 well plate at 20,000-50,000 cells per well and grown for 20-28 hours at 37° C. to allow adherence.
# Inhibitor compounds were diluted in DMSO to 50 μM, then serially diluted with MEM media (ThermoFisher). Final inhibitor concentration ranged from 1000 nM to 0.064 nM (5-fold dilution series).
# The RPMI medium was removed from the plate of confluent cells. The plate was then incubated for 35 min at 37°, after which were added 0.1 mL of the diluted inhibitor compounds in MEM with fructose, 0.1 mL of MEM media without inhibitor compound or fructose, or trypsin; yielding a final concentration of fructose at 20 mM. The plate was subsequently incubated for 20 min at 37°, then placed on ice to stop the reactions.
# Next, 200 μL of cold 80% (v/v) methanol:water was added to all wells, except the controls used to enumerate cell count. The plate was vortexed and cell debris removed by centrifugation. To measure F1P produced, the resulting supernatant fraction was analyzed by LC/MS.
# [1] = biological target: human KHK-C in engineered HepG2 cells (Homo sapiens (Human), UniProt P50053); assay: Cell-based potency assay (KHK-C-overexpressing HepG2 assay), F1P by LC/MS; settings: fructose 30 mM, 5 min, F1P produced, geomean
# Experimental: Testing inhibition effect of compounds against human KHK-C in engineered HepG2 cells.
# Engineered HepG2 cells were generated using methods known to those of skill in the art. Briefly, HepG2 cells were incubated with lentivirus carrying a transgene encoding human KHK-C, and grown under antibiotic selection.
# as §4, with “KHK-C-overexpressing HepG2” for “HepG2”, “T-182 cm^2 flask” for “100 mm plates”, “25-40×10^6” for “5-8×10^6”, “aspirated, the flask was washed with 10 mL PBS,” for “aspirated”, “3-5” for “5-10”
# The cells were then placed in a 96-well plate at 20,000-40,000 cells per well and grown for 20-28 hours at 37° C. to allow adherence.
# Inhibitor compounds were diluted in DMSO to 50 μM, then serially diluted with MEM media (ThermoFisher). Final inhibitor concentration ranged from 5000 nM to 0.32 nM.
# The RPMI medium was removed from the plate of confluent cells. The plate was then incubated for 35 min at 37° C. with 0.1 mL of the diluted inhibitor compounds in MEM. After, an additional 0.1 mL of the diluted inhibitor compounds in MEM with fructose, or 0.1 mL of MEM media without inhibitor compound and/or fructose; yielding a final concentration of fructose at 30 mM was added. The plate was subsequently incubated for 5 min at 37° C., then placed on ice to stop the reactions.
# Next 200 μL of cold 80% (v/v) methanol:water was added to al wells and placed in the −80° C. freezer for 1 hour with an adhesive seal. The plate was vortexed and cell debris removed by centrifugation. To measure F1P produced, the resulting supernatant fraction was analyzed by LC/MS.
# Human recombinant KHK-A, sequence (P50053 other isoform, or with tags, fused parts or gaps): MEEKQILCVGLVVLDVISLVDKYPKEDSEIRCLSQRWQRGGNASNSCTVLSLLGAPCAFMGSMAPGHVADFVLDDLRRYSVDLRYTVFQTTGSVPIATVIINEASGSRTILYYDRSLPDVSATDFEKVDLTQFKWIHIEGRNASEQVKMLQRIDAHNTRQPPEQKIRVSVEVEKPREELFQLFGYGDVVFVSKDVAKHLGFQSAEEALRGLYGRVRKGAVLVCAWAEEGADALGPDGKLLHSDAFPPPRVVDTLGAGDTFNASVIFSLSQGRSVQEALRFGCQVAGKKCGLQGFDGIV
# Rat recombinant KHK-A, sequence (Q02974 other isoform, or with tags, fused parts or gaps): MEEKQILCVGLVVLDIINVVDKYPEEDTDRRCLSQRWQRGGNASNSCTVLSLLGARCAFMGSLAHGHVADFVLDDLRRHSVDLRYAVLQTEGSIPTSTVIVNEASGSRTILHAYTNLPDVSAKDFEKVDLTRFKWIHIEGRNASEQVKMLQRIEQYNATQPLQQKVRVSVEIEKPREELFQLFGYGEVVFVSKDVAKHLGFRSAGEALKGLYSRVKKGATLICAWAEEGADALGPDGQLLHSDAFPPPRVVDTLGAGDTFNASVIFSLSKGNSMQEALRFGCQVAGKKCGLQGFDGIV
# Rat recombinant KHK-C, sequence (Q02974 whole entry): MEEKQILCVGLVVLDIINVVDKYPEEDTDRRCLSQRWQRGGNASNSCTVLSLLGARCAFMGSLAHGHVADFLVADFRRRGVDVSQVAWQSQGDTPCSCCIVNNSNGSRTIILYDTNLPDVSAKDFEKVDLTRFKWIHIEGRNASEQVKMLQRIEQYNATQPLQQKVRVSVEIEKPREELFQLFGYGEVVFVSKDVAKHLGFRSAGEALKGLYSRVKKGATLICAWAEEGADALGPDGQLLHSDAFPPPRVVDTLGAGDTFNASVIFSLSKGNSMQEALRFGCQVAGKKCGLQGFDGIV
# human KHK-C in engineered HepG2 cells, sequence (P50053 whole entry, stated change not applied): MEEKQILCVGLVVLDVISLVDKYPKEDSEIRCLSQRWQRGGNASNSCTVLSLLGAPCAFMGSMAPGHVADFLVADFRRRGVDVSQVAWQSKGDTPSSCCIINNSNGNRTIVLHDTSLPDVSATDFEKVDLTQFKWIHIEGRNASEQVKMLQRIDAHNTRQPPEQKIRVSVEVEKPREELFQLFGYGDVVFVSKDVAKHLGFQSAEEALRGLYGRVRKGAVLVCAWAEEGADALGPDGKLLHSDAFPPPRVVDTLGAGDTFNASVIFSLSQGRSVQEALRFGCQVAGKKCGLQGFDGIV
# human KHK in HepG2 Cells, sequence (P50053 whole entry): as the sequence (P50053 whole entry, stated change not applied) above
# Human recombinant KHK-C, sequence (P50053 whole entry): as the sequence (P50053 whole entry, stated change not applied) above
pIC50 (Human recombinant KHK-A),pIC50 (Rat recombinant KHK-A),pIC50 (Rat recombinant KHK-C),pIC50 (Human recombinant KHK-C),pIC50 (human KHK in HepG2 Cells),pIC50 [1],Structure (SMILES)
8.39,8.89,8.48,8.98,9.00,7.47,"Cc1c(-c2cnn(C3CN(C)C3)c2)nc(N2C[C@@H](O)[C@@H]2C)nc1C(F)(F)F [Compound A12, (2S,3R)-2-methyl-1-{5-methyl-4-[1-(1-methyl-3-azetidinyl)-4-pyrazolyl]-6-(trifluoromethyl)-2-pyrimidinyl}-3-azetidinol]"
8.34,8.54,8.08,8.13,7.60,6.73,"Cc1c(-c2cnn(CC(=O)N3CCNCC3)c2)nc(N2CC[C@@H]2C)nc1C(F)(F)F [Compound A3, 2-(4-{2-[(S)-2-methyl-1-azetidinyl]-5-methyl-6-(trifluoromethyl)-4-pyrimidinyl}-1-pyrazolyl)-1-(1-piperazinyl)-1-ethanone]"
8.69,8.84,8.48,8.82,8.70,7.44,"Cc1c(-c2cnn(C3CN(C)C3)c2)nc(N2C[C@@H](O)[C@@H]2C)nc1C(F)F [Compound A21, (2S,3R)-1-{6-(difluoromethyl)-5-methyl-4-[1-(1-methyl-3-azetidinyl)-4-pyrazolyl]-2-pyrimidinyl}-2-methyl-3-azetidinol]"
